Assay results from US9095598B2, “Stilbenoid derivatives and their uses” (The Board of Trustees of the University of Arkansas, priority 2010, dated 2015).
Where two headings read alike, the source gives them in different places.

What was measured:
CB1 receptors [1] = biological target: T1, CB1 receptors (Mus musculus, UniProt P47746); assay type: biochemical
T1 construct: from tissue; host or cells: mouse brain membranes

CB1 receptors [2] = assay type: biochemical, mouse; conditions: 10 μM, 30 min at 30° C.
human CB2 = biological target: T2, human CB2 (Homo sapiens, UniProt P34972); experiment: CB2 receptor binding, CHO-hCB2 membranes, 3H-CP 55,940 displacement; conditions: 0.2 nM 3H-CP 55,940, 90 min room temperature
T2 construct: expressed in transfected cells; host or cells: CHO cells, stably transformed; membrane preparations
T2 sequence (P34972 whole entry): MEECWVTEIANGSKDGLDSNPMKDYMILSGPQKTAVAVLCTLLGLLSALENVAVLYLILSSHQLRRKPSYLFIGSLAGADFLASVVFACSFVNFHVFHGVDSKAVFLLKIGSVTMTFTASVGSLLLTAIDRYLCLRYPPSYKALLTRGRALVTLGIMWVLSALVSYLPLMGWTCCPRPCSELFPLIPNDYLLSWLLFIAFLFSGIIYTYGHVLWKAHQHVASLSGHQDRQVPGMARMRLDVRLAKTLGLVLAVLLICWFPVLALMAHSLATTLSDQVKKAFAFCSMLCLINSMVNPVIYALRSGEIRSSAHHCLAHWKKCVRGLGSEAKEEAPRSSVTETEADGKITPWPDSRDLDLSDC
Protocol: (§1) Membrane preparations were prepared from mouse brain to examine CB1 binding. For CB2 binding, membrane preparations were prepared from CHO cells stably transformed with human CB2.

[3] = biological target: T3, human recombinant UGT1A10 (Homo sapiens, UniProt Q9HAW8); experiment: Glucuronidation by recombinant human UGT1A10 (activity screen and kinetic constants); conditions: for glucuronide formation, in words (FIG. 1): substrate 250 μM, UDP-GlcUA 4 mM
T3 sequence (Q9HAW8 26-530): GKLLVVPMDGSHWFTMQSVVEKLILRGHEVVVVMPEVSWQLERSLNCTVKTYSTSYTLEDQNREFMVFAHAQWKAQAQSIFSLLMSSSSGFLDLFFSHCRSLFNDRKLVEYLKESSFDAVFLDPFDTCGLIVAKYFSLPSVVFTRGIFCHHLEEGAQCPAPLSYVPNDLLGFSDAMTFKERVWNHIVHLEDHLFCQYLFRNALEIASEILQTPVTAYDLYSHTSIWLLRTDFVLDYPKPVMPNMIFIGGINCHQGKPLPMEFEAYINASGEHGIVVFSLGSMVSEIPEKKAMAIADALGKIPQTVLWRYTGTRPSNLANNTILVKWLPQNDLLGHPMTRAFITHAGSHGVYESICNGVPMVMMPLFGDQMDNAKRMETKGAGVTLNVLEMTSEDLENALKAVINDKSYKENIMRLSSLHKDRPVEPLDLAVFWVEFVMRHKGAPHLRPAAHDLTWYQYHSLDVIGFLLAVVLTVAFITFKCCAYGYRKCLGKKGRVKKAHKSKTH
Protocol: (§2) Eight human recombinant UGT1A isoforms (UGT1A1, 1A3, 1A4, 1A6, 1A7, 1A8, 1A9, and 1A10; 5 μg) expressed as His-tag proteins in baculovirus-infected Sf9 insect cells and human liver microsomes (from one donor; HL2; 50 μg) and human intestinal microsomes (from two donors; HI36 and HI41; 50 μg) were evaluated for their ability to glucuronidate these four compounds. The concentrations of the substrate and co-substrate (i.e., UDP-GlcUA) were 250 μM and 4 mM, respectively. Glucuronidation products were analyzed by HPLC and LCMS/MS.
(§3) The kinetic constants of the glucuronidation reactions using recombinant human UGT1A1 and UGT1A10 were determined by measuring the enzyme activity in the presence of increasing concentrations of substrate (see FIG. 2).

human recombinant UGT1A1 [4] = biological target: T4, human recombinant UGT1A1 (Homo sapiens, UniProt P22309); experiment: Glucuronidation by recombinant human UGT1A1 (activity screen and kinetic constants); conditions: for Kinetics (model): — = No activity; for glucuronide formation, in words (FIG. 1): substrate 250 μM, UDP-GlcUA 4 mM
T4 sequence (P22309 26-533): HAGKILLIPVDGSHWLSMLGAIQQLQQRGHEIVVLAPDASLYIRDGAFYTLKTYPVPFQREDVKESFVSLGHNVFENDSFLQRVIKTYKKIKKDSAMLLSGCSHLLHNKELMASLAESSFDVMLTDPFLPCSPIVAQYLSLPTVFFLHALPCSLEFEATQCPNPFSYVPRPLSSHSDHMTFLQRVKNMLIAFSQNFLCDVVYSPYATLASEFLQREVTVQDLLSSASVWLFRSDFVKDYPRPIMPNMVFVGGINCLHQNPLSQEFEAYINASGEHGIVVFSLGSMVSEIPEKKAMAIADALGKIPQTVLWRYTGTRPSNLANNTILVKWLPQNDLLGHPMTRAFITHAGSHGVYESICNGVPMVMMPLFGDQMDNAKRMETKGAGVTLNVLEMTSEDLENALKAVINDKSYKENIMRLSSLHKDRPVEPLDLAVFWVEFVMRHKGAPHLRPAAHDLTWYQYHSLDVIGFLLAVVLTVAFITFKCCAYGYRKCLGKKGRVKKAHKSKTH
Protocol: as §2, §3

[5] = biological target: T3, human recombinant UGT1A10; conditions: 250 μM
Protocol: as §2, §3

human recombinant UGT1A1 [6] = biological target: T4, human recombinant UGT1A1; conditions: 250 μM
Protocol: as §2, §3

[7] = system: sepsis-induced renal injury (CLP); experiment: Murine cecal ligation and puncture (CLP) model of sepsis-induced renal injury; assay type: in vivo, mice; conditions: 30 mg/kg i.p. 30 min prior to and 6 hr post CLP; 18 hr post CLP
Text: Control (sham) mice underwent surgery but not CLP. Each treatment group contained 4-5 mice. Renal ONOO^− generation (rhodamine fluorescence) and renal peritubular capillary perfusion were quantified using intravital video microscopy (IVVM) on anesthetized mice in each of the treatment groups.

[8] = biological target: T5, CB1 receptors (mouse brain-mCB1 membranes) (Mus musculus, UniProt P47746); experiment: CB1 receptor binding, mouse brain membranes, 3H-CP 55,940 displacement
T5 construct: from tissue; host or cells: mouse brain membranes
T5 sequence (P47746 whole entry): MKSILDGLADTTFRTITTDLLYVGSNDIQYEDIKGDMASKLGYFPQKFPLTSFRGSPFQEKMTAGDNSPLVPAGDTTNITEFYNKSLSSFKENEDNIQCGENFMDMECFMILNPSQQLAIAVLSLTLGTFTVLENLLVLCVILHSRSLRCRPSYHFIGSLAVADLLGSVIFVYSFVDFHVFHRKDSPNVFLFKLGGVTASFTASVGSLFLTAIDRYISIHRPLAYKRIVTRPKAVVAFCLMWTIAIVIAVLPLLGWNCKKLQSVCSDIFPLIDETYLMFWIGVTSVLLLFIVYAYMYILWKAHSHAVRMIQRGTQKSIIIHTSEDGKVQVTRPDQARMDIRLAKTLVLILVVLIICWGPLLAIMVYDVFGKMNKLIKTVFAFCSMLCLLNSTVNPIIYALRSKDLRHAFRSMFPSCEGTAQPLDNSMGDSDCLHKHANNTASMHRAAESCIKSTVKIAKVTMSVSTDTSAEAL
Protocol: as §1

[9] = product 4′-glucuronide (4′G), USI = substrate inhibition

T1 sequence (P47746 whole entry): as above

| Compound | effect on basal G-protein activity, in words (CB1 receptors [2]) | Ki (human CB2) [µM] | Kinetics (model) [3, 9] | glucuronide formation, in words (FIG. 1) [3] | Kinetics (model) (human recombinant UGT1A1 [4]; product 3-glucuronide (3G)) | Kinetics (model) (human recombinant UGT1A1 [4]; product 4′-glucuronide (4′G)) | glucuronide formation, in words (FIG. 1) (human recombinant UGT1A1 [4]) | further results |
| --- | --- | --- | --- | --- | --- | --- | --- | --- |
| CCCCCCC(C)(C)c1ccc([C@@H]2C[C@H](O)CC[C@H]2CCCO)c(O)c1 [CP-55,940, reference compound] |  |  |  |  |  |  |  | effect on G-protein activity, in words (CB1 receptors [1]; 1 μM, 30 min at 30° C.): stimulated; maximal response produced by CP-55,940 (CB1 receptors [1]; CP-55,940 alone): 0.34+/−0.03 pmole/mg protein |
| CC1=CC[C@@H]2[C@@H](C1)c1c(O)cc(CC#CCCCNS(C)(=O)=O)cc1OC2(C)C [O-2050, reference compound] |  |  |  |  |  |  |  | effect of co-incubation on CP-55,940 stimulation and AM251 inhibition of G-protein activity (CB1 receptors [1]; data not shown): blocked |
| CC(C)/C=C/c1c(O)cc(/C=C/c2ccc(O)cc2)cc1O [tA3, trans-arachidin-3] | little effect | 11.3 ± 0.6 | USI | significant inhibition of 3-O-glucuronidation | M-M | M-M | significant inhibition of 3-O-glucuronidation | Kinetics (model) ([3]; product 4′-glucuronide (4′G), USI = substrate inhibition, listed as 1A3): substrate inhibition kinetics |
| Oc1cc(O)cc(/C=C/c2ccc(O)c(O)c2)c1 [tPice, trans-piceatannol] | markedly reduced |  | Hill |  | M-M | M-M |  | Kinetics (model) ([3]; product 3-glucuronide (3G), — = No activity): M-M |
| Oc1ccc(/C=C/c2cc(O)cc(O)c2)cc1 [tRes, trans-resveratrol] | little effect | 65.5 ± 12 |  |  |  |  |  | glucuronide formation, in words (FIG. 1) [5]: glucuronidated to 3-O— and 4′-O-Glucs; glucuronide formation, in words (FIG. 1) (human recombinant UGT1A1 [6]): glucuronidated to 3-O— and 4′-O-Glucs; RNS generation in the kidney (rhodamine fluorescence, IVVM) [7]: blocked RNS generation in the kidney; renal peritubular capillary perfusion (IVVM) [7]: preserved renal capillary perfusion |
| trans-arachidin-1 [tA1] | markedly reduced | 12.6 ± 1.7 | substrate inhibition kinetics and USI | formation of the 3-O-Gluc |  |  | completely blocked formation of any Gluc | increase (shift-to-the-right) in the ED50 of CP-55,940 (CB1 receptors [1]; 10 μM tA-1): 7 fold; maximal response produced by CP-55,940 in presence of test compound (CB1 receptors [1]; with tA-1 (10 μM)): 0.22+/−0.04 pmole/mg protein; enhancement of binding affinity for CB1 (isoprenyl plus additional hydroxyl group) [8]: 2 fold |
